Test results from patent publication US8987284B2, “Phosphorus containing quinazoline compounds and methods of use” (Newgen Therapeutics, Inc., priority 2009, dated 2015).

Legend:
BT474 cells = assay: Cell proliferation inhibition assay for BT474 (CCK-8); format: cell-based; settings: Homo sapiens, BT-474; 72 h, 8 points
Experimental: Human breast cancer BT474 cells was cultured in low glucose DMEM (Life Technologies 12320-032) containing 10% fetal bovine serum (FBS) at 37° C. in a humidified 10% CO2, 90% air incubator. Cells were harvested using trypsin/EDTA, counted using a haemocytometer, and plated 10000 cell/well in a 96-well clear tissue culture plate. The cells were incubated for 24 h at 37° C. to allow adherence. A serials of concentrations of each compound (ranging from 30 uM to […], 5-fold dilution) in 96-well plate, and incubated for 72 h. Each concentration was tested in triplicate wells. During the cell proliferation assay, BT474 cells were cultured in low-glucose DMEM containing 5% FBS, 50 ug/ml gentamicin, and 0.3% v/v DMSO. The culture medium was removed via aspiration, and the cell viability was detected by using CCK-8 cell proliferation kit.

EGFR kinase = molecular target: T1, EGFR kinase (Homo sapiens, UniProt P00533); assay: Kinase assay for EGFR (TR-FRET LanthaScreen); format: biochemical; settings: % inhibition at 100 nM or IC50 (nM)
T1 construct: purchased Invitrogen PV3872
T1 sequence (P00533 25-1210): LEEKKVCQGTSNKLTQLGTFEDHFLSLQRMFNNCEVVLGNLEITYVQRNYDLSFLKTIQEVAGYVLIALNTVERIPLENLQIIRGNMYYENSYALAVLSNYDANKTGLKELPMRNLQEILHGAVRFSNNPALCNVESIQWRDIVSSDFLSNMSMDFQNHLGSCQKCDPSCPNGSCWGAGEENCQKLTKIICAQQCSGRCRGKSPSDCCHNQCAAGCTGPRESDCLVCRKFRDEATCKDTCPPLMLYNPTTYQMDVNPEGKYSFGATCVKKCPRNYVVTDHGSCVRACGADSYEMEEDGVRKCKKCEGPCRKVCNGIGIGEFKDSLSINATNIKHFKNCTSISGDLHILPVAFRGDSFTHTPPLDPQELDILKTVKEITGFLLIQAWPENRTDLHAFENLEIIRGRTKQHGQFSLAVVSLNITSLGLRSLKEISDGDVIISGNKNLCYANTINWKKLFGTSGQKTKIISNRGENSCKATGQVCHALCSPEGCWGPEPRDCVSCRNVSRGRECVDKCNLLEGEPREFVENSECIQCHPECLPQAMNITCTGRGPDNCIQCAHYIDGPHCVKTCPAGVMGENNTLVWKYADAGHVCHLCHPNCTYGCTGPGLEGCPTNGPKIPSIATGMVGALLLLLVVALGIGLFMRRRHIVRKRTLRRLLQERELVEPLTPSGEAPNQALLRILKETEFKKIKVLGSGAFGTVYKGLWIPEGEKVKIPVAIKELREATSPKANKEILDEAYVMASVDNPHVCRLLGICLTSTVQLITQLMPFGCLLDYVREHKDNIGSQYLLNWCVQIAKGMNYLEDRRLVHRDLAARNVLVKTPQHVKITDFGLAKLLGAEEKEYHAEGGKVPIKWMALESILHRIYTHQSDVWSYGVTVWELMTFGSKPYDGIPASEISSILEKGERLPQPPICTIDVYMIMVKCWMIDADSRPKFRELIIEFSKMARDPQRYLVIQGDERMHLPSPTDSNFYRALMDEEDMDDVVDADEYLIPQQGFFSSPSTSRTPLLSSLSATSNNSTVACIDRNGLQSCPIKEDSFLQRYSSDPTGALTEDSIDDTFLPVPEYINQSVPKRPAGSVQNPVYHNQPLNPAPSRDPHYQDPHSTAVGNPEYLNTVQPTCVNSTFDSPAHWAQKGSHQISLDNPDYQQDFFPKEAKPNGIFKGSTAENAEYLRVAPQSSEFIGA
Experimental: The extent to which the compounds of the present invention modulate EGFR kinase activity can be determined using time-resolved Fret (TR-FRET) assay (LanthaScreen® kinase activity assay, from Invitrogen). The assay employs EGFR kinase (PV3872, Invitrogen), Tb-Py20 antibody (PV3552, Invitrogen) and fluorescein-poly GT (PV3610, In vitrogen)
The assay is performed in a Black 384-well plate (available from Corning). EGFR kinase (is diluted in TR-FRET Dilution Buffer (PV3189, InVitrogen) at concentration of 0.4 ug/ml as stock solution, and then 2-fold serial diluted. Addition of 1 mM ATP initiated the reaction, and the reaction is incubated for 1 h reaction at room temperature. 10 μL of the Tb-antibody (from Invitrogen)+EDTA (from Invitrogen) solution prepared was added to each well of the assay plate and mix briefly, and incubated for 30 min. The signal is monitored by using M5 microplate reader (Ex=332 nm, Em=488 nm and 518 nm). Each compound is tested in duplicate wells. EGFR without compound is used as control. Staurosporine (available from Sigma) is used as positive control compound. Inhibition was calculated as percentage of the EGFR activity (without compound)

SMILES	IC50 (BT474 cells) [nM]	EGFR inhibition inhibit % at 100 nM or IC50 (nM) (EGFR kinase)
CP1(=O)CCN(Cc2ccc(-c3ccc4ncnc(Nc5ccc(OCc6cccc(F)c6)c(Cl)c5)c4c3)o2)CC1 [Example 1, N-(3-chloro-4-(3-fluorobenzyloxy)phenyl)-6-(5-((4-methyl-1,4-azaphosphino-1-yl)methyl)furan-2-yl)quinazolin-4-amine]	< 100	++ (>50% inhibition at 100 nM, or IC50 <100 nM for EGFR or ErbB2 kinases)
CP(C)(=O)CCNCc1ccc(-c2ccc3ncnc(Nc4ccc(OCc5cccc(F)c5)c(Cl)c4)c3c2)o1 [Example 2, 6-(5-((2-(dimethylphosphino)ethylaminoyl)methyl)furan-2-yl)-N-(4-(3-fluorobenzyloxy)-3-chlorophenyl)quinazolin-4-amine]	< 100	++ (>50% inhibition at 100 nM, or IC50 <100 nM for EGFR or ErbB2 kinases)
CP(C)(=O)CNCc1ccc(-c2ccc3ncnc(Nc4ccc(OCc5cccc(F)c5)c(Cl)c4)c3c2)o1 [Example 3, 6-(5-(((dimethylphosphinoyl)methylamino)methyl)furan-2-yl)-N-(4-(3-fluorobenzyloxy)-3-chlorophenyl)quinazolin-4-amine]	100 to 1000	++ (>50% inhibition at 100 nM, or IC50 <100 nM for EGFR or ErbB2 kinases)
CP1(=O)CCN(Cc2ccc(-c3ccc4ncnc(Nc5ccc(OCc6ccccn6)c(Cl)c5)c4c3)o2)CC1 [Example 8, N-(3-chloro-4-(pyridin-2-ylmethoxy)phenyl)-6-(5-((4-methyl-1,4-azaphosphino-1-yl)methyl)furan-2-yl)quinazolin-4-amine]	< 100	++ (>50% inhibition at 100 nM, or IC50 <100 nM for EGFR or ErbB2 kinases)
Cc1cccc(COc2ccc(Nc3ncnc4ccc(-c5ccc(CN6CCP(C)(=O)CC6)o5)cc34)cc2Cl)n1 [Example 9, N-(3-chloro-4-((6-methylpyridin-2-yl)methoxy)phenyl)-6-(5-((4-methyl-1,4-azaphosphino-1-yl)methyl)furan-2-yl)quinazolin-4-amine]	100 to 1000	+ (between 20% to 50% inhibition at 100 nM, or IC50 between 100 and 1000 nM)
CP(C)(=O)CN1CCN(Cc2ccc(-c3ccc4ncnc(Nc5ccc(OCc6cccc(F)c6)c(Cl)c5)c4c3)o2)CC1 [Example 13, N-(4-(3-fluorobenzyloxy)-3-chlorophenyl)-6-(5-((4-((dimethylphosphinoyl)-methyl)piperazin-1-yl)methyl)furan-2-yl)quinazolin-4-amine]	100 to 1000	++ (>50% inhibition at 100 nM, or IC50 <100 nM for EGFR or ErbB2 kinases)
CP1(=O)CCN(Cc2ccc(-c3ccc4ncnc(Nc5ccc(OCc6cccc[n+]6[O-])c(Cl)c5)c4c3)o2)CC1 [Example 15, 2-((2-chloro-4-(6-(5-((4-methyl-1,4-azaphosphino-1-yl)methyl)furan-2-yl)quinazolin-4-ylamino)phenoxy)methyl)pyridine 1-oxide]	< 100	++ (>50% inhibition at 100 nM, or IC50 <100 nM for EGFR or ErbB2 kinases)
CCOP1(=O)CCN(Cc2ccc(-c3ccc4ncnc(Nc5ccc(OCc6cccc(F)c6)c(Cl)c5)c4c3)o2)CC1 [Example 17, N-(3-chloro-4-(3-fluorobenzyloxy)phenyl)-6-(5-((4-ethoxy-1,4-azaphosphino-1-yl)methyl)furan-2-yl)quinazolin-4-amine]	< 100	++ (>50% inhibition at 100 nM, or IC50 <100 nM for EGFR or ErbB2 kinases)
CP1(=O)CCN(Cc2ccc(-c3ccc4ncnc(Nc5ccc(Br)c(Cl)c5F)c4c3)o2)CC1 [Example 21, N-(4-Bromo-3-chloro-2-fluorophenyl)-6-(5-((4-methyl-1,4-azaphosphino-1-yl)methyl)furan-2-yl)quinazolin-4-amine]	–	++ (>50% inhibition at 100 nM, or IC50 <100 nM for EGFR or ErbB2 kinases)
CP1(=O)CCN(Cc2ccc(-c3ccc4ncnc(Nc5ccc(OCc6cnccn6)c(Cl)c5)c4c3)o2)CC1 [Example 22, N-(3-chloro-4-(pyrazin-2-ylmethoxy)phenyl)-6-(5-((4-methyl-1,4-azaphosphino-1-yl)methyl)furan-2-yl)quinazolin-4-amine]	–	++ (>50% inhibition at 100 nM, or IC50 <100 nM for EGFR or ErbB2 kinases)
C#Cc1cc(Nc2ncnc3ccc(-c4ccc(CN5CCP(C)(=O)CC5)o4)cc23)ccc1OCc1cccc(F)c1 [Example 23, N-(4-(3-fluorobenzyloxy)-3-ethynylphenyl)-6-(5-((4-methyl-1,4-azaphosphino-1-yl)methyl)furan-2-yl)quinazolin-4-amine]	100 to 1000	++ (>50% inhibition at 100 nM, or IC50 <100 nM for EGFR or ErbB2 kinases)
Cc1cccc(COc2ccc(Nc3ncnc4ccc(-c5ccc(CN6CCP(C)(=O)CC6)o5)cc34)cc2Cl)[n+]1[O-] [Example 24, 2-((2-chloro-4-(6-(5-((4-methyl-1,4-azaphosphino-1-yl)methyl)furan-2-yl)quinazolin-4-ylamino)phenoxy)methyl)-6-methylpyridine 1-oxide]	100 to 1000	++ (>50% inhibition at 100 nM, or IC50 <100 nM for EGFR or ErbB2 kinases)
CP(C)(=O)CCNCc1ccc(-c2ccc3ncnc(Nc4ccc5c(cnn5Cc5cccc(F)c5)c4)c3c2)o1 [Example 25, 6-(5-((2-(dimethylphosphinoyl)ethylamino)methyl)furan-2-yl)-N-(1-(3-fluorobenzyl)-1H-indazol-5-yl)quinazolin-4-amine]	100 to 1000	++ (>50% inhibition at 100 nM, or IC50 <100 nM for EGFR or ErbB2 kinases)
CCN(CCP(C)(C)=O)Cc1ccc(-c2ccc3ncnc(Nc4ccc5c(cnn5Cc5cccc(F)c5)c4)c3c2)o1 [Example 26]	100 to 1000	++ (>50% inhibition at 100 nM, or IC50 <100 nM for EGFR or ErbB2 kinases)
CP(C)(=O)CCN(CCO)Cc1ccc(-c2ccc3ncnc(Nc4ccc5c(cnn5Cc5cccc(F)c5)c4)c3c2)o1 [Example 27, 2-(N-((5-(4-(1-(3-fluorobenzyl)-1H-indazol-5-ylamino)quinazolin-6-yl)furan-2-yl)methyl)-N-(2-(dimethylphosphinoyl)ethyl)amino)ethanol]	< 100	++ (>50% inhibition at 100 nM, or IC50 <100 nM for EGFR or ErbB2 kinases)
CP1(=O)CCN(CC#Cc2ccc3ncnc(Nc4ccc5c(cnn5Cc5cccc(F)c5)c4)c3c2)CC1 [Example 28, N-(1-(3-fluorobenzyl)-1H-indazol-5-yl)-6-(3-(4-methyl-1,4-azaphosphino-1-yl)prop-1-ynyl)quinazolin-4-amine]	100 to 1000	++ (>50% inhibition at 100 nM, or IC50 <100 nM for EGFR or ErbB2 kinases)
